Data from PubChem BioAssay (NCI).
Values joined by “and” are separate entries in the source; they are usually repeats but may differ in a detail not shown here. Equal entries are not always repeated.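 The compound was tested at five concentrations on cells cultured in 96-well plates, with a 48-hour exposure period. Abbreviation: GI50, concentration required for 50% inhibition of growth. TGI denotes the concentration required for complete inhibition of growth.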

Legend:
Assay in all cases: NCI tumour cell line growth inhibition, 48 h
TK-10 renal = system: TK-10 renal
OVCAR-5 ovarian = system: OVCAR-5 ovarian
CCRF-CEM leukemia = system: CCRF-CEM leukemia
BT-549 breast = system: BT-549 breast
SK-OV-3 ovarian = system: SK-OV-3 ovarian
SK-MEL-28 melanoma = system: SK-MEL-28 melanoma
SF-539 CNS = system: SF-539 CNS
NCI-H23 lung = system: NCI-H23 lung
T-47D breast = system: T-47D breast
SF-268 CNS = system: SF-268 CNS

| Structure (SMILES) | GI50 (TK-10 renal) | TGI (TK-10 renal) | TGI (OVCAR-5 ovarian) | TGI (CCRF-CEM leukemia) | GI50 (BT-549 breast) | TGI (BT-549 breast) | GI50 (SK-OV-3 ovarian) | TGI (SK-OV-3 ovarian) | GI50 (SK-MEL-28 melanoma) | TGI (SK-MEL-28 melanoma) | GI50 (SF-539 CNS) | TGI (SF-539 CNS) | GI50 (NCI-H23 lung) | TGI (NCI-H23 lung) | TGI (T-47D breast) | GI50 (SF-268 CNS) | TGI (SF-268 CNS) | GI50 (T-47D breast) | GI50 (OVCAR-5 ovarian) | GI50 (CCRF-CEM leukemia) |
| --- | --- | --- | --- | --- | --- | --- | --- | --- | --- | --- | --- | --- | --- | --- | --- | --- | --- | --- | --- | --- |
| C/C(=N\NC(=S)N1CCN(c2ccccn2)CC1)c1ncccn1 | 1.71 µM | 18.5 µM | 4.77 µM and 21.5 µM | 2.06 µM and 11.4 µM | 0.0936 µM | 18.8 µM | 0.0884 µM | 4.47 µM and 13 µM | 0.566 µM | 7.1 µM and 14.1 µM | 0.655 µM | 6.38 µM and 15.9 µM | < 0.016 µM | 4.81 µM and 19.3 µM | 18.5 µM | 0.791 µM | 1.47 µM and 14.6 µM |  |  |  |
| CC(C)(C)c1cc(C(=O)O)c2c(c1)C(=O)OC2(c1ccccc1)c1ccccc1C(=O)O (stereo not drawn) |  | > 100 µM | > 100 µM | > 100 µM | > 100 µM | > 100 µM |  |  |  | > 100 µM |  | > 100 µM |  | > 100 µM | > 100 µM |  | > 100 µM | > 100 µM |  |  |
| COc1ccc(/C=N\Nc2nc(SCC(C)C)nc(-c3ccc(OC)cc3)c2C#N)cc1 | 2.02 µM | 8.62 µM | > 100 µM | > 100 µM | 15.7 µM | 52.5 µM | 1.46 µM | 14.6 µM | 30.8 µM | > 100 µM | 6.28 µM | 20.1 µM | 12.2 µM | 31.7 µM | 10.7 µM | 11.7 µM | 67.7 µM | 1.36 µM | 20.4 µM | 9.78 µM |
| N#Cc1c(NC(=O)c2ccccc2F)sc2c1CCCC2 | > 25 µM | > 25 µM | > 25 µM | > 25 µM | > 20.3 µM | > 25 µM | > 25 µM | > 25 µM | > 25 µM | > 25 µM | > 25 µM | > 25 µM | > 25 µM | > 25 µM | > 25 µM | > 25 µM | > 25 µM | > 25 µM | > 25 µM | > 25 µM |
| COc1ccc(-c2[nH]c3ccccc3c2/C=C(\C#N)S(=O)(=O)c2ccccc2)cc1 | 3.65 µM | > 100 µM | > 100 µM |  | 1.63 µM | > 76 µM | 0.516 µM | > 25.3 µM | 1.48 µM | > 71.9 µM | 0.299 µM | 1.13 µM | 0.769 µM | > 61.1 µM | 6.15 µM | 1.13 µM | > 45.9 µM | 0.53 µM | 1.84 µM | 0.807 µM |
| CC1CCC2C(CN(CC3=C(C(F)(F)F)OC4OC5(C)CCC6C(C)CCC3C46OO5)CC3=C(C(F)(F)F)OC4OC5(C)CCC6C(C)CCC3C46OO5)=C(C(F)(F)F)OC3OC4(C)CCC1C32OO4 (stereo not drawn) | 15.4 µM | 30 µM | > 100 µM | 28 µM | 13.1 µM | 34.1 µM | 35.2 µM | > 100 µM | 30.1 µM | > 100 µM | 11.9 µM | 38.6 µM | 6.04 µM | 19.7 µM | 27.2 µM | 18.7 µM | 48.4 µM | 3.97 µM | 15.3 µM | 4.8 µM |
| N#CCNC(=O)c1ccc(-c2ccnc(Nc3ccc(N4CCOCC4)cc3)n2)cc1 | 0.873 µM and 0.607 µM | 8.31 µM and 4.58 µM | > 54.4 µM | > 30 µM | 2.24 µM and 1.54 µM | > 10 µM and 5.8 µM | 4.04 µM and 3.83 µM | > 10 µM and 24.7 µM | 4.49 µM and 2.56 µM | > 10 µM and 20.3 µM | 2.29 µM and 1.14 µM | > 10 µM and 10.4 µM | 2.71 µM and 1.87 µM | > 10 µM and 38.4 µM | > 10 µM and 99.8 µM | 1.78 µM and 1.41 µM | > 10 µM and 17.7 µM | > 10 µM and 9.94 µM | 3.43 µM and 4.07 µM | 2.5 µM and 2.51 µM |
| COC1=C(OC)[C@]2(OC)c3c(O)c(OC)c4c(c3O[C@@]23O[C@@H](c2ccccc2)CC=C3C1=O)[C@@H](OC)C[C@H](c1ccccc1)O4 | 0.821 µM | 1.93 µM | 2.93 µM | 0.0631 µM | 0.461 µM | 1.56 µM | 1.91 µM | 3.56 µM | 0.591 µM | 1.49 µM | 0.421 µM | 1.54 µM | 0.277 µM | 1.01 µM | 1.71 µM | 0.806 µM | 2.84 µM | 0.564 µM | 1.5 µM | 0.0173 µM |
| O=S(=O)(NCCCNc1nccc(-c2c(-c3ccc(F)cc3)nc3sccn23)n1)c1ccc(F)cc1 | 19.2 µM | > 100 µM | > 100 µM | > 100 µM | 3.9 µM | 31.2 µM | 17.1 µM | > 100 µM | 20.3 µM | > 100 µM | 42.1 µM | > 100 µM | 17.8 µM | > 100 µM | 13.2 µM | 20 µM | > 100 µM | 2.28 µM | > 100 µM | 3.91 µM |
| S=C(NCc1ccc2c(c1)OCO2)N1CCN(c2ncnc3c2oc2ccccc23)CC1 | 1.12 µM |  | > 100 µM | > 100 µM | 26.9 µM | > 100 µM | > 100 µM | > 100 µM | > 100 µM | > 100 µM | > 100 µM | > 100 µM | 5.34 µM | > 100 µM | > 100 µM | > 100 µM | > 100 µM | 2.3 µM | > 100 µM | > 82.7 µM |
| COc1c(CC=C(C)C)c(O)c(C(CC(C)C)c2c(O)c(CC=C(C)C)c(O)c(C(C)=O)c2O)c(O)c1C(C)=O (stereo not drawn) |  | 14.6 µM | 19.7 µM | 1.65 µM |  | 14.9 µM |  | 11.1 µM |  | 5.21 µM |  | 7.76 µM |  | 0.877 µM | 16 µM |  | 8.12 µM |  |  |  |
| CCOC(=O)C(Cc1ccc(N(CCCl)CCCl)cc1)NC(=O)C(Cc1ccccc1)NC(C)=O (stereo not drawn) |  | > 0.325 µM | > 0.435 µM | 0.213 µM |  | > 0.798 µM |  | > 0.44 µM |  |  |  | > 0.294 µM |  | > 0.304 µM | > 0.928 µM |  | > 0.288 µM |  |  |  |
| CN1CCCC1c1cccnc1.O=C(O)c1ccccc1O.O=C([O-])c1ccccc1[OH2+].O=C([O-])c1ccccc1[OH2+].[Mn+2] (stereo not drawn) | > 100 µM | > 100 µM | > 100 µM | 97.8 µM | 54.3 µM | > 100 µM | > 100 µM | > 100 µM | > 100 µM | > 100 µM |  |  | > 100 µM | > 100 µM | > 100 µM | 31.6 µM | > 100 µM | > 100 µM | 73.1 µM | 24.8 µM |
